In this assay the target is GLPX (Rv1099c) (Mycobacterium tuberculosis, UniProt P9WN21). In kind it is biochemical.

The structures appear in SMILES notation.

Consider `O=P(O)(O)OC[C@H]1OC(O)(COP(=O)(O)O)[C@@H](O)[C@@H]1O` (stereo partly shown) [fructose 1,6-bisphosphate], for which the “coupled spectrophotometric assay (phosphoglucoisomerase / G6P dehydrogenase, NAD)” value was “Expression of GLPX in ΔglpXΔgpm2 provided lithium-sensitive FBPase activity”.
